Results taken from patent US7767626B2, “3-arylphenyl sulfide derivative and insecticide and miticide” (Kumiai Chemical Industry Co., Ltd., priority 1998, dated 2010).
Where two headings read alike, the source gives them in different places.

Legend:
two-spotted spider mites = assay: Insecticidal test on two-spotted spider mites (Test Example 1); format: in vivo; conditions: Tetranychus urticae, 312 h, read-out: preventive value
Excerpt: Test Example 1 Insecticidal Test on Two-Spotted Spider Mites

[1] = wettable powder diluted to 500 ppm active ingredient, soybean seedlings inoculated with adult mites immersed, survivors counted after 13 days, Equation 1

melting point | SMILES | pest or weed control at 500 µg/mL (two-spotted spider mites; [1]) | pest or weed control at 500 µg/mL (two-spotted spider mites; in Glycine max)
– | CSc1cc(-c2ccccc2)c(C#N)c(N)c1C#N [Comparative Compound 1, 2-amino-6-methylthio-4-phenyl-benzene-1,3-dicarbonitrile, reference compound] | 0% | –
– | CCOCOc1ccc(-c2ccc(C(F)(F)F)cc2)cc1SCC(F)(F)F [Compound I-213, [2-ethoxymethoxy-5-(4-trifluoromethylphenyl)phenyl] 2,2,2-trifluoroethyl sulfide] | – | ≥ 90%
89 to 92 °C | CCSc1cc(-c2ccc(Cl)cc2Cl)ccc1C#N | – | –
135 to 136 °C | N#Cc1ccc(-c2ccc(C(F)(F)F)cn2)cc1SCC1CC1 [I I-5, 2-cyclopropylmethylthio-4-(5-trifluoromethylpyridin-2-yl)benzonitrile] | ≥ 90% | –
– | CSc1cc(-c2ccccc2)c(C#N)c(N)c1[N+](=O)[O-] [Comparative Compound 2, 2-amino-6-phenyl-4-methylthio-3-nitrobenzonitrile, reference compound] | 0% | –
90 to 91 °C | N#Cc1ccc(-c2n[nH]cc2C(F)(F)F)cc1SCC(F)(F)F [Compound V-639, 2-(2,2,2-trifluoroethylthio)-4-(4-trifluoromethylpyrazolyl)benzonitrile] | ≥ 90% | –
123 to 124 °C | N#Cc1ccc(-c2ccc(Cl)s2)cc1SCC1CC1 [I V-5, 4-(5-chlorothiophen-2-yl)-2-cyclopropylmethylthiobenzonitrile] | ≥ 90% | –

SMILES | melting point | pest or weed control at 500 µg/mL (two-spotted spider mites; [1]) | pest or weed control at 500 µg/mL (two-spotted spider mites; in Glycine max)
C=CCSc1cc(-c2ccc(C(F)(F)F)cc2)ccc1C#N [Compound I-42, 2-(2-propenylthio)-4-(4-trifluoromethylphenyl)benzonitrile] | 89 to 90 °C | – | ≥ 90%
CCCSc1cc(-c2ccc(C(F)(F)F)cc2)c(F)cc1[N+](=O)[O-] [Compound I-221, [4-fluoro-2-nitro-5-(4-trifluoromethylphenyl)phenyl] propyl sulfide] | 57 to 59 °C | – | ≥ 90%
